The source of these data is ChEMBL document CHEMBL5390317, “Novel Indane-Containing NBTIs with Potent Anti-Gram-Negative Activity and Minimal hERG Inhibition” (ACS Med Chem Lett, 2023).

Converted amounts (≈) assume the structure as drawn.

For series [1], the system named is Escherichia coli. The series is described as follows: Antibacterial activity against Escherichia coli ATCC BAA-2340 assessed as inhibition in bacterial growth incubated for 20 to 24 hrs by CLSI based broth microdilution method. The series is classed as functional. The following applies: Escherichia coli, ATCC BAA-2340, time 20-24 hrs; read-out: MIC.
Series [2] relates to Pseudomonas aeruginosa. The experiment in a line: Antibacterial activity against Pseudomonas aeruginosa NCTC 11451 assessed as inhibition in bacterial growth incubated for 20 to 24 hrs by CLSI based broth microdilution method. The series is classed as functional. The following applies: Pseudomonas aeruginosa, NCTC 11451, time 20-24 hrs; read-out: MIC. (Broth dilution looks for growth in wells or tubes with falling amounts of substance.)

Series [3] deals with T1, hERG (KCNH2) (Homo sapiens, UniProt Q12809). The experiment in a line: Inhibition of hERG potassium channel expressed in CHO cells at 10 uM by electrophysiological patch clamp assay relative to control. The series is classed as toxicity, cell-based. The following applies: CHO cells expressing hERG. (Block of hERG is tested as a sign of cardiac risk.)
Series [4] deals with Klebsiella pneumoniae. The series is described as follows: Antibacterial activity against Klebsiella pneumoniae ATCC BAA-1705 assessed as inhibition in bacterial growth incubated for 20 to 24 hrs by CLSI based broth microdilution method. The series is classed as functional. To be noted: time 20-24 hrs.
In series [5] the test system is Escherichia coli. The series is described as follows: Antibacterial activity against Escherichia coli ATCC 25922 assessed as inhibition in bacterial growth incubated for 20 to 24 hrs by CLSI based broth microdilution method. To be noted: time 20-24 hrs. The series is classed as functional.
The subject of series [6] is Acinetobacter baumannii. The experiment in a line: Antibacterial activity against Acinetobacter baumannii ATCC 51432 assessed as inhibition in bacterial growth incubated for 20 to 24 hrs by CLSI based broth microdilution method. The series is classed as functional. To be noted: Acinetobacter baumannii, ATCC 51432, time 20-24 hrs; read-out: MIC.
Series [7] is described as follows: Inhibition of Escherichia coli topoisomerase 4 incubated for 120 mins by Transcreener ADP2 FI assay.
Series [8] deals with Pseudomonas aeruginosa. The series is described as follows: Antibacterial activity against Pseudomonas aeruginosa NCTC 13437 assessed as inhibition in bacterial growth incubated for 20 to 24 hrs by CLSI based broth microdilution method. The series is classed as functional. The following applies: Pseudomonas aeruginosa, NCTC 13437, time 20-24 hrs; read-out: MIC.
For series [9], the system named is Klebsiella pneumoniae. The experiment in a line: Antibacterial activity against Klebsiella pneumoniae ATCC 700603 assessed as inhibition in bacterial growth incubated for 20 to 24 hrs by CLSI based broth microdilution method. The series is classed as functional. To be noted: Klebsiella pneumoniae, ATCC 700603, time 20-24 hrs; read-out: MIC.
Series [10] has as its system Staphylococcus aureus. The series is described as follows: Antibacterial activity against Staphylococcus aureus ATCC BAA-1556 assessed as inhibition in bacterial growth incubated for 20 to 24 hrs by CLSI based broth microdilution method. The series is classed as functional. To be noted: Staphylococcus aureus, ATCC BAA-1556, time 20-24 hrs; read-out: MIC.
Series [11] concerns Escherichia coli. The series is described as follows: Antibacterial activity against Escherichia coli ATCC 35218 assessed as inhibition in bacterial growth incubated for 20 to 24 hrs by CLSI based broth microdilution method. The series is classed as functional. The following applies: Escherichia coli, ATCC 35218, time 20-24 hrs; read-out: MIC.
The subject of series [12] is Acinetobacter baumannii. The series is described as follows: Antibacterial activity against Acinetobacter baumannii ATCC 19606 assessed as inhibition in bacterial growth incubated for 20 to 24 hrs by CLSI based broth microdilution method. The following applies: time 20-24 hrs. The series is classed as functional.
For a further series, the target named is DNA gyrase (Escherichia coli, UniProt P0AES4+P0AES6). The series is described as follows: Inhibition of Escherichia coli DNA gyrase incubated for 80 mins by Transcreener ADP2 FI assay. The series is classed as protein-complex assay.
For series [13], the system named is Escherichia coli. The series is described as follows: Antibacterial activity against Escherichia coli K-12 BW25113 deltaTolC assessed as inhibition in bacterial growth incubated for 20 to 24 hrs by CLSI based broth microdilution method. The series is classed as functional. The following applies: time 20-24 hrs.
The subject of series [14] is Staphylococcus aureus. The experiment in a line: Antibacterial activity against Staphylococcus aureus ATCC 29213 assessed as inhibition in bacterial growth incubated for 20 to 24 hrs by CLSI based broth microdilution method. The series is classed as functional. The following applies: Staphylococcus aureus, ATCC 29213; time 20-24 hrs; read-out: MIC.
The subject of series [15] is Klebsiella pneumoniae. The experiment in a line: Antibacterial activity against Klebsiella pneumoniae ATCC BAA-2146 assessed as inhibition in bacterial growth incubated for 20 to 24 hrs by CLSI based broth microdilution method. The series is classed as functional. The following applies: Klebsiella pneumoniae, ATCC BAA-2146, time 20-24 hrs; read-out: MIC.
Series [16] concerns Pseudomonas aeruginosa. The series is described as follows: Antibacterial activity against Pseudomonas aeruginosa ATCC 27853 assessed as inhibition in bacterial growth incubated for 20 to 24 hrs by CLSI based broth microdilution method. To be noted: time 20-24 hrs. The series is classed as functional.
The subject of series [17] is Klebsiella pneumoniae. The series is described as follows: Antibacterial activity against Klebsiella pneumoniae ATCC 10031 assessed as inhibition in bacterial growth incubated for 20 to 24 hrs by CLSI based broth microdilution method. The series is classed as functional. To be noted: time 20-24 hrs.
For series [18], the target named is T1, hERG (KCNH2). The series is described as follows: Inhibition of hERG potassium channel expressed in CHO cells at 1 uM by electrophysiological patch clamp assay relative to control. The series is classed as toxicity, cell-based. To be noted: CHO cells expressing hERG.
Series [19] has as its target Voltage-gated inwardly rectifying potassium channel KCNH2 (Homo sapiens, UniProt Q12809). The experiment in a line: (§1) Inhibition of hERG potassium channel expressed in CHO cells by electrophysiological patch clamp assay. The series is classed as toxicity, cell-based.
Series [20] has as its target T1, hERG (KCNH2). The series is described as §1. The series is classed as toxicity, cell-based. The following applies: human, CHO cells expressing hERG.
Series [21] deals with Escherichia coli. The experiment in a line: Antibacterial activity against Escherichia coli K-12 BW25113 assessed as inhibition in bacterial growth incubated for 20 to 24 hrs by CLSI based broth microdilution method. The series is classed as functional. To be noted: Escherichia coli, K-12 BW25113, time 20-24 hrs; read-out: MIC.
The subject of series [22] is Acinetobacter baumannii. The series is described as follows: Antibacterial activity against Acinetobacter baumannii ATCC BAA-747 assessed as inhibition in bacterial growth incubated for 20 to 24 hrs by CLSI based broth microdilution method. The series is classed as functional. The following applies: Acinetobacter baumannii, ATCC BAA-747, time 20-24 hrs; read-out: MIC.

T1 sequence (Q12809 whole entry): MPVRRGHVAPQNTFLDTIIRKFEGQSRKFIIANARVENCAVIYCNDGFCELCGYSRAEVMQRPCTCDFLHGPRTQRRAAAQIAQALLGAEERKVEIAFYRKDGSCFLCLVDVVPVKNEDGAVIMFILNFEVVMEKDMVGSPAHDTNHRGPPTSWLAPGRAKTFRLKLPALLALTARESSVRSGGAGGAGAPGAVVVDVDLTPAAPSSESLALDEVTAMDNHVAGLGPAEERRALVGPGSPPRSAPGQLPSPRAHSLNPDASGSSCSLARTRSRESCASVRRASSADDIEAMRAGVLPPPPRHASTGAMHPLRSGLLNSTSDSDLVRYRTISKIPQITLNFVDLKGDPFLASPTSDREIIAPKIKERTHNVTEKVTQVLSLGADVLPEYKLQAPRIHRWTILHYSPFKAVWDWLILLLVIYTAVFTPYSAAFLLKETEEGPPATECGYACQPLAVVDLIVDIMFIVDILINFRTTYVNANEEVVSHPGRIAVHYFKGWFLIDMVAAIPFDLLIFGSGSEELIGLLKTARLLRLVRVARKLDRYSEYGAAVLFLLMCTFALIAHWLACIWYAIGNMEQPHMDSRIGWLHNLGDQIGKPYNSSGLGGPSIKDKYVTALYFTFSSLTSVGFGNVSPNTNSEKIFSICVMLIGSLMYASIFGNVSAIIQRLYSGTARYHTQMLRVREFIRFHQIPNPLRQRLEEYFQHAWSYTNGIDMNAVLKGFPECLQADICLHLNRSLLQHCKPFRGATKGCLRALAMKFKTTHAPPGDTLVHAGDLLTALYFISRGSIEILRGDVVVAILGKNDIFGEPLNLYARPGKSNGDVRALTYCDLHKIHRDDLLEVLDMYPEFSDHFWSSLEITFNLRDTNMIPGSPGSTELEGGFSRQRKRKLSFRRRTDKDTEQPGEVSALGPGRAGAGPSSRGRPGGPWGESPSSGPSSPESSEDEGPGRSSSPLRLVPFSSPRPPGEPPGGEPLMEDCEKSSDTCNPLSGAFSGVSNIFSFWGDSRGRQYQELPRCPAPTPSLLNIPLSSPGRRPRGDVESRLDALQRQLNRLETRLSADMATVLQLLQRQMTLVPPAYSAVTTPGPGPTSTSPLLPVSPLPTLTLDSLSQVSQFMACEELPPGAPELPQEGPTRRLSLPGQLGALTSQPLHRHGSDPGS
Chain of Voltage-gated inwardly rectifying potassium channel KCNH2 (Q12809 whole entry): as above

For `N#Cc1cc(OCC2CNC2)cc2c1CC(CNCCC1CN(c3ccc4c(n3)NC(=O)CO4)C(=O)O1)C2` (centres undefined), the MIC in the series with Escherichia coli [1] stood at 1 µg/mL (≈ 1.93 µM); in the series with Pseudomonas aeruginosa [2], 4 µg/mL (≈ 7.71 µM); in the series on Klebsiella pneumoniae [4] it was 16 µg/mL (≈ 30.9 µM); in the series with Escherichia coli [5], 2 µg/mL (≈ 3.86 µM); in the series with Acinetobacter baumannii [6], 16 µg/mL (≈ 30.9 µM); with Pseudomonas aeruginosa [8], 4 µg/mL (≈ 7.71 µM). Besides, the MIC was 32 µg/mL (≈ 61.7 µM) with Klebsiella pneumoniae [9]; 1 µg/mL (≈ 1.93 µM) in the series with Staphylococcus aureus [10]; 2 µg/mL (≈ 3.86 µM) with Escherichia coli [11]; 32 µg/mL (≈ 61.7 µM) with Acinetobacter baumannii [12]; no more than 0.06 µg/mL in the series with Escherichia coli [13]; 0.5 µg/mL (≈ 0.964 µM) in the series on Staphylococcus aureus [14]. The MIC in the series with Klebsiella pneumoniae [15] amounted to 64 µg/mL (≈ 123 µM); with Pseudomonas aeruginosa [16], 0.5 µg/mL (≈ 0.964 µM); with Klebsiella pneumoniae [17] it was 0.125 µg/mL (≈ 0.241 µM); in the series with Escherichia coli [21], 1 µg/mL (≈ 1.93 µM); in the series on Acinetobacter baumannii [22] it was 8 µg/mL (≈ 15.4 µM). Moreover, on hERG (KCNH2) [3], the inhibition at 10 µM is less than 1%. In addition, the IC50 in [7] is 19 nM; against DNA gyrase it was 38 nM; in [19], greater than 20000 nM. Further, the inhibition at 1 µM against hERG (KCNH2) [18] was less than 1%. This compound returned an IC20 against hERG (KCNH2) [20] greater than 10000 nM.
As to `C[C@@H](N)COc1cc(F)c2c(c1)CC(CN1CCC3(CC1)CN(c1cnc4c(n1)NC(=O)CO4)C(=O)O3)C2` (some centres undefined), the MIC in the series on Escherichia coli [1] was 0.125 µg/mL (≈ 0.237 µM); with Pseudomonas aeruginosa [2] it was 0.5 µg/mL (≈ 0.95 µM); in the series with Klebsiella pneumoniae [4], 0.5 µg/mL (≈ 0.95 µM); in the series with Escherichia coli [5], no more than 0.06 µg/mL; in the series on Acinetobacter baumannii [6] it was 0.5 µg/mL (≈ 0.95 µM); with Pseudomonas aeruginosa [8], 0.5 µg/mL (≈ 0.95 µM). For the same compound, the MIC with Klebsiella pneumoniae [9] is 1 µg/mL (≈ 1.9 µM); with Staphylococcus aureus [10], no more than 0.06 µg/mL; in the series with Escherichia coli [11] it was no more than 0.06 µg/mL; in the series with Acinetobacter baumannii [12], 0.25 µg/mL (≈ 0.475 µM); in the series on Escherichia coli [13], no more than 0.06 µg/mL; in the series on Staphylococcus aureus [14] it was no more than 0.06 µg/mL. Further, the MIC with Klebsiella pneumoniae [15] is 1 µg/mL (≈ 1.9 µM); in the series on Pseudomonas aeruginosa [16] it was 0.125 µg/mL (≈ 0.237 µM); with Klebsiella pneumoniae [17], no more than 0.06 µg/mL; in the series on Escherichia coli [21] it was no more than 0.06 µg/mL; in the series on Acinetobacter baumannii [22] it was no more than 0.06 µg/mL. On hERG (KCNH2) [3], this compound yielded an inhibition at 10 µM of 12%. Besides, the IC50 was 16 nM in series [7], 24 nM against DNA gyrase and greater than 20000 nM in [19]. The compound further had an inhibition at 1 µM against hERG (KCNH2) [18] of 6.7%. Further, the IC20 against hERG (KCNH2) [20] is greater than 10000 nM.
With `N#Cc1cc(OC2CNC2)cc2c1CC(CNCCC1CN(c3ccc4c(n3)NC(=O)CO4)C(=O)O1)C2` (centres undefined), the MIC came to 0.5 µg/mL (≈ 0.991 µM) in the series on Escherichia coli [1]; 1 µg/mL (≈ 1.98 µM) in the series with Pseudomonas aeruginosa [2]; 4 µg/mL (≈ 7.93 µM) in the series with Klebsiella pneumoniae [4]; 0.5 µg/mL (≈ 0.991 µM) in the series with Escherichia coli [5]; 4 µg/mL (≈ 7.93 µM) in the series on Acinetobacter baumannii [6]; 0.5 µg/mL (≈ 0.991 µM) with Pseudomonas aeruginosa [8]. Further, the minimum inhibitory concentration (MIC) in the series with Klebsiella pneumoniae [9] is 4 µg/mL (≈ 7.93 µM); with Staphylococcus aureus [10] it was 0.5 µg/mL (≈ 0.991 µM); with Escherichia coli [11], 0.5 µg/mL (≈ 0.991 µM); in the series with Acinetobacter baumannii [12], 8 µg/mL (≈ 15.9 µM); with Escherichia coli [13], no more than 0.06 µg/mL; in the series on Staphylococcus aureus [14], no more than 0.06 µg/mL. Besides, the MIC in the series with Klebsiella pneumoniae [15] is 8 µg/mL (≈ 15.9 µM); in the series on Pseudomonas aeruginosa [16], 0.125 µg/mL (≈ 0.248 µM); in the series on Klebsiella pneumoniae [17] it was no more than 0.06 µg/mL; with Escherichia coli [21] it was 0.125 µg/mL (≈ 0.248 µM); with Acinetobacter baumannii [22], 4 µg/mL (≈ 7.93 µM). This compound also returned an inhibition at 10 µM against hERG (KCNH2) [3] of less than 1%. For the same compound, the values for the IC50 (in [7]; at DNA gyrase; in series [19]) were 29 nM, 51 nM and greater than 20000 nM, respectively. Besides, the inhibition at 1 µM on hERG (KCNH2) [18] was less than 1%. Also, on hERG (KCNH2) [20], the IC20 is greater than 10000 nM.

The MIC is the smallest concentration in the dilution series that meets the test's criterion for growth inhibition. A word on the inhibition: it is the drop in the measured response relative to a control, in per cent. Lower therefore signals little suppression. As a reminder, the IC50 is the point on the concentration scale where inhibition reaches its midpoint. A high value points to lower potency. As a reminder, the IC20 is the concentration at which the effect reaches the 20% level.
